# Measurements: US10364245B2 (CHIESI FARMACEUTICI S.p.A., priority 2017, dated 2019)
# Structures can show the parent of a compound that is named as a salt.
# Molecular target: T1, p38 alpha (Homo sapiens, UniProt Q16539)
# T1 construct: purchased Invitrogen PV3304
# Test: P38 alpha enzyme inhibition assay (Alphascreen kinase activity assay)
# Type: biochemical
# Details: 100 pM p38 alpha, 2 hours preincubation at 25° C., 250 μM ATP, ATF-2 fusion protein; read-out: p38α inhibition
# Method: P38 Alpha Enzyme Inhibition Assay
# The inhibitory activity of compounds was determined using an Alphascreen® (Perkin Elmer) based kinase activity assay. Kinase reactions consisted of 25 mM HEPES pH 7.5, 10 mM MgCl2, 100 μM Na3VO4, 2 mM DTT, 0.05 mg/ml Tween 20, 100 pM p38 alpha (Invitrogen, PV3304), 1% DMSO and 0.3 μg/ml ATF-2 fusion protein (New England Biolabs, 9224). Compounds were incubated under these conditions for 2 hours, at 25° C., prior to the initiation of the kinase activity by the addition of the 250 μM ATP. Reaction volumes were 20 μL. After 1 hr at 25° C. reactions were stopped by the adding 10 μL of 25 mM HEPES pH 7.5 containing 62.5 mM EDTA, 0.05% Triton X-100, 10% BSA and 0.83 ng/uL anti-phospho-ATF2 antibody (Abcam, ab28812). Detection was performed by measuring luminescence following the addition of Alphascreen Donor beads (Perkin Elmer 6765300) and Protein A Alphascreen Acceptor beads (Perkin Elmer 6760137), both at a final concentration of 20 ug/ml. IC50 values were determined from concentration-response curves.
# T1 sequence (Q16539 whole entry): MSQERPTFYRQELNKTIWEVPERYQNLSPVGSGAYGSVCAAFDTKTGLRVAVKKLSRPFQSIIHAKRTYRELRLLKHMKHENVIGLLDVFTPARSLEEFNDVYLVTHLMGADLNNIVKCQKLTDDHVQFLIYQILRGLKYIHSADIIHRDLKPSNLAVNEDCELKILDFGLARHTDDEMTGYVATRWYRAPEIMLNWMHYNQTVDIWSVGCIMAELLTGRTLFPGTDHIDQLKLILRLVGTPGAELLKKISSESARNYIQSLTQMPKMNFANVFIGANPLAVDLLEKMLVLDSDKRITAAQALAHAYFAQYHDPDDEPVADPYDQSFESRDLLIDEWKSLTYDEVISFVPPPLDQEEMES
row,IC50 [nM],SMILES
1,1 to 10,"CC(C)c1nnc2ccc(O[C@@H]3CC[C@H](NC(=O)Nc4cc(C(C)(C)C)nc(C(=O)NCCN(C)C)n4)c4ccccc43)cn12 [Example 17, 4-(tert-Butyl)-N-(2-(dimethylamino)ethyl)-6-(3-((1S,4R)-4-((3-isopropyl-[1,2,4]triazolo[4,3-a]pyridin-6-yl)oxy)-1,2,3,4-tetrahydronaphthalen-1-yl)ureido)pyrimidine-2-carboxamide]"
2,1 to 10,"CN(C)CCNC(=O)c1nc(NC(=O)N[C@H]2CC[C@@H](Oc3ccc4nnc(C(C)(C)N5CCN(C)CC5)n4c3)c3ccccc32)cc(C(C)(C)C)n1 [Example 22, 4-(tert-Butyl)-N-(2-(dimethylamino)ethyl)-6-(3-((1S,4R)-4-((3-(2-(4-methylpiperazin-1-yl)propan-2-yl)-[1,2,4]triazolo[4,3-a]pyridin-6-yl)oxy)-1,2,3,4-tetrahydronaphthalen-1-yl)ureido)pyrimidine-2-carboxamide]"
3,1 to 10,"CCc1nc(NC(=O)N[C@H]2CC[C@@H](Oc3ccc4nnc([C@]5(C)CCCN5C)n4c3)c3ccccc32)cc(C(C)(C)C)n1 [Example 41, 1-(6-(tert-Butyl)-2-ethylpyrimidin-4-yl)-3-((1S,4R)-4-((3-((S)-1,2-dimethylpyrrolidin-2-yl)-[1,2,4]triazolo[4,3-a]pyridin-6-yl)oxy)-1,2,3,4-tetrahydronaphthalen-1-yl)urea]"
4,1 to 10,"CC(C)c1nc(NC(=O)N[C@H]2CC[C@@H](Oc3ccc4nnc([C@]5(C)CCCN5C)n4c3)c3ccccc32)cc(C(C)(C)C)n1 [Example 42, 1-(6-(tert-Butyl)-2-isopropylpyrimidin-4-yl)-3-((1S,4R)-4-((3-((S)-1,2-dimethylpyrrolidin-2-yl)-[1,2,4]triazolo[4,3-a]pyridin-6-yl)oxy)-1,2,3,4-tetrahydronaphthalen-1-yl)urea]"
5,1 to 10,CSc1nc(NC(=O)N[C@H]2CC[C@@H](Oc3ccc4nnc([C@@H]5CCCN5C)n4c3)c3ccccc32)cc(C(C)(C)C)n1 [Example 48]
6,1 to 10,"CC(C)(C)c1cc(NC(=O)N[C@H]2CC[C@@H](Oc3ccc4nnc(C(C)(C)C)n4c3)c3ccccc32)nc(COCCN2CCOCC2)n1 [Example 63, 1-(6-(tert-Butyl)-2-((2-morpholinoethoxy)methyl)pyrimidin-4-yl)-3-((1S,4R)-4-((3-(tert-butyl)-[1,2,4]triazolo[4,3-a]pyridin-6-yl)oxy)-1,2,3,4-tetrahydronaphthalen-1-yl)urea]"
7,1 to 10,"CN(C)CCNC(=O)c1nc(NC(=O)N[C@H]2CC[C@@H](Oc3ccc4nnc(C(=O)N5CCOCC5)n4c3)c3ccccc32)cc(C(C)(C)C)n1 [Example 71, 4-(tert-butyl)-N-(2-(dimethylamino)ethyl)-6-(3-((1S,4R)-4-((3-(morpholine-4-carbonyl)-[1,2,4]triazolo[4,3-a]pyridin-6-yl)oxy)-1,2,3,4-tetrahydronaphthalen-1-yl)ureido)pyrimidine-2-carboxamide]"
8,1 to 10,"CC(C)(C)c1cc(NC(=O)N[C@H]2CC[C@@H](Oc3ccc4nnc(C(C)(C)C)n4c3)c3ccccc32)nc(C(=O)N2CC(F)(F)C2)n1 [Example 79, 1-(6-(tert-butyl)-2-(3,3-difluoroazetidine-1-carbonyl)pyrimidin-4-yl)-3-((1S,4R)-4-((3-(tert-butyl)-[1,2,4]triazolo[4,3-a]pyridin-6-yl)oxy)-1,2,3,4-tetrahydronaphthalen-1-yl)urea]"
9,1 to 10,"CC(C)Cc1nnc2ccc(O[C@@H]3CC[C@H](NC(=O)Nc4cc(C(C)(C)C)nc(C(=O)NCCN5CCOCC5)n4)c4ccccc43)cn12 [Example 90, 4-(tert-butyl)-6-(3-((1S,4R)-4-((3-isobutyl-[1,2,4]triazolo[4,3-a]pyridin-6-yl)oxy)-1,2,3,4-tetrahydronaphthalen-1-yl)ureido)-N-(2-morpholinoethyl)-pyrimidine-2-carboxamide]"
10,1 to 10,"CC(C)(C)c1cc(NC(=O)N[C@H]2CC[C@@H](Oc3ccc4nnc(C5(C)COC5)n4c3)c3ccccc32)nc(C(=O)NCCN2CCOCC2)n1 [Example 98, 4-(tert-butyl)-6-(3-((1S,4R)-4-((3-(3-methyloxetan-3-yl)-[1,2,4]triazolo[4,3-a]pyridin-6-yl)oxy)-1,2,3,4-tetrahydronaphthalen-1-yl)ureido)-N-(2-morpholinoethyl)-pyrimidine-2-carboxamide]"
11,1 to 10,"CO[C@@H](C)c1nnc2ccc(O[C@@H]3CC[C@H](NC(=O)Nc4cc(C(C)(C)C)nc(C(=O)NCCN5CCOCC5)n4)c4ccccc43)cn12 [Example 101, 4-(tert-butyl)-6-(3-((1S,4R)-4-((3-((S)-1-methoxyethyl)-[1,2,4]triazolo[4,3-a]pyridin-6-yl)oxy)-1,2,3,4-tetrahydronaphthalen-1-yl)ureido)-N-(2-morpholinoethyl)-pyrimidine-2-carboxamide]"
12,1 to 10,"COCCN(C)CCNC(=O)c1nc(NC(=O)N[C@H]2CC[C@@H](Oc3ccc4nnc([C@H](C)OC)n4c3)c3ccccc32)cc(C(C)(C)C)n1 [Example 106, 4-(tert-butyl)-N-(2-((2-methoxyethyl)(methyl)amino)ethyl)-6-(3-((1S,4R)-4-((3-((S)-1-methoxyethyl)-[1,2,4]triazolo[4,3-a]pyridin-6-yl)oxy)-1,2,3,4-tetrahydronaphthalen-1-yl)ureido)pyrimidine-2-carboxamide]"
13,1 to 10,"CN(C)CCN(C)C(=O)c1nc(NC(=O)N[C@H]2CC[C@@H](Oc3ccc4nnc(C(C)(C)C)n4c3)c3ccccc32)cc(C(C)(C)C)n1 [Example 115, 4-(tert-butyl)-6-(3-((1S,4R)-4-((3-(tert-butyl)-[1,2,4]triazolo[4,3-a]pyridin-6-yl)oxy)-1,2,3,4-tetrahydronaphthalen-1-yl)ureido)-N-(2-(dimethylamino)ethyl)-N-methylpyrimidine-2-carboxamide]"
14,1 to 10,"CC(C)(C)c1cc(NC(=O)N[C@H]2CC[C@@H](Oc3ccc4nnc(C(C)(C)C)n4c3)c3ccccc32)nc(C(=O)N2CCN(CCO)CC2)n1 [Example 116, 1-(6-(tert-butyl)-2-(4-(2-hydroxyethyl)piperazine-1-carbonyl)pyrimidin-4-yl)-3-((1S,4R)-4-((3-(tert-butyl)-[1,2,4]triazolo[4,3-a]pyridin-6-yl)oxy)-1,2,3,4-tetrahydronaphthalen-1-yl)urea]"
15,1 to 10,"CN1CCCN(C(=O)c2nc(NC(=O)N[C@H]3CC[C@@H](Oc4ccc5nnc(C(C)(C)C)n5c4)c4ccccc43)cc(C(C)(C)C)n2)CC1 [Example 133, 1-(6-(tert-butyl)-2-(4-methyl-1,4-diazepane-1-carbonyl)pyrimidin-4-yl)-3-((1S,4R)-4-((3-(tert-butyl)-[1,2,4]triazolo[4,3-a]pyridin-6-yl)oxy)-1,2,3,4-tetrahydronaphthalen-1-yl)urea]"
16,1 to 10,"CN1CCN(Cc2nc(NC(=O)N[C@H]3CC[C@@H](Oc4ccc5nnc(C(C)(C)C)n5c4)c4ccccc43)cc(C(C)(C)C)n2)C(=O)C1 [Example 135, 1-(6-(tert-Butyl)-2-((4-methyl-2-oxopiperazin-1-yl)methyl)pyrimidin-4-yl)-3-((1S,4R)-4-((3-(tert-butyl)-[1,2,4]triazolo[4,3-a]pyridin-6-yl)oxy)-1,2,3,4-tetrahydronaphthalen-1-yl)urea formate salt]"
17,1 to 10,"COC(C)(C)c1nnc2ccc(O[C@@H]3CC[C@H](NC(=O)Nc4cc(C(C)(C)C)nc(C(=O)NCC(C)(C)N(C)C)n4)c4ccccc43)cn12 [Example 141, 4-(tert-butyl)-N-(2-(dimethylamino)-2-mcthylpropyl)-6-(3-((1S,4R)-4-((3-(2-methoxypropan-2-yl)-[1,2,4]triazolo[4,3-a]pyridin-6-yl)oxy)-1,2,3,4-tetrahydronaphthalen-1-yl)ureido)pyrimidine-2-carboxamide]"
18,1 to 10,"COC(C)(C)c1nnc2ccc(O[C@@H]3CC[C@H](NC(=O)Nc4cc(C(C)(C)C)nc(COCCN5CCOCC5)n4)c4ccccc43)cn12 [Example 144, 1-(6-(tert-butyl)-2-((2-morpholinoethoxy)-methyl)pyrimidin-4-yl)-3-((1S,4R)-4-((3-(2-methoxypropan-2-yl)-[1,2,4]triazolo[4,3-a]pyridin-6-yl)oxy)-1,2,3,4-tetrahydronaphthalen-1-yl)urea]"
19,1 to 10,"CCC(CC)(CNC(=O)c1nc(NC(=O)N[C@H]2CC[C@@H](Oc3ccc4nnc(C(C)(C)COC)n4c3)c3ccccc32)cc(C(C)(C)C)n1)N(C)C [Example 147, 4-(tert-butyl)-N-(2-(dimethylamino)-2-ethylbutyl)-6-(3-((1S,4R)-4-((3-(1-methoxy-2-methylpropan-2-yl)-[1,2,4]triazolo[4,3-a]pyridin-6-yl)oxy)-1,2,3,4-tetrahydronaphthalen-1-yl)ureido)pyrimidine-2-carboxamide]"
20,1 to 10,"CCN(C)C(C)(C)CNC(=O)c1nc(NC(=O)N[C@H]2CC[C@@H](Oc3ccc4nnc(C(C)(C)C)n4c3)c3ccccc32)cc(C(C)(C)C)n1 [Example 148, 4-(tert-butyl)-6-(3-((1S,4R)-4-((3-(tert-butyl)-[1,2,4]triazolo[4,3-a]pyridin-6-yl)oxy)-1,2,3,4-tetrahydronaphthalen-1-yl)ureido)-N-(2-(ethyl(methyl)amino)-2-methylpropyl)pyrimidine-2-carboxamide]"
